Measurements: patent publication EP3749673B1, “CRYSTALLINE FORM OF BICTEGRAVIR SODIUM” (Sandoz AG, priority 2018, dated 2019)

Assays:
Type in all cases: physicochemical
[1] = Initial dissolution behaviour (dissolution rate), about 100 mg suspended in 10 ml solvent, filtrate analysed by HPLC; settings: 24°C, stirring time 1 minute, approx. 100mg in 10ml
Description: The initial dissolution behavior of bictegravir sodium form II was compared with bictegravir sodium form I. Approximately 100mg Bictegravir-Na (Form I or Form II) were suspended at 24°C in 10ml solvent. Two different solvents were used for the study: 0,1M aqueous HCl solution and a phosphate buffer system (pH6,8; prepared according to "Küster Thiel - Rechentafeln dür die chemische Analytik").
After a stirring time of 1 minute a sample was taken and filtered throw a syringe filter. The received clear filtrate was analyzed by HPLC to determine the Bictegravir content. The HPLC-column was a YMC-Pack Pro C18 RS (150mm x 4.6mm) operated at 0.8 ml/min. Detection was at a wavelength of 254 nm. Mobile phases were sulfamic acid in water and acetonitrile, respectively, and were used as components of the gradient.

[2] = Differential scanning calorimetry, resistance to temperature stress (solid-solid phase transition); settings: DSC, heating rate 10 K/min, 25 to 400 °C
Description: Bictegravir sodium Form II was investigated by DSC, which was performed on a Mettler Polymer DSC R instrument. The sample (3.77 mg) was heated in a 40 microliter aluminium pan with a pierced aluminium lid from 25 to 400 °C at a rate of 10 K/min. Nitrogen (purge rate 50 mL/min) was used as purge gas.

[3] = Storage stability (polymorphic stability determined by XRPD); settings: stored at 40°C/75% rh
Description: Thus bictegravir sodium form II is a storage stable (polymorphically stable as determined by XRPD for at least 1 month when stored at 40°C/75% rh) fast-dissolving crystalline form of bictegravir sodium with unexpected advantages over bictegravir sodium form I.

SMILES: O=C(NCc1c(F)cc(F)cc1F)c1cn2c(c(O)c1=O)C(=O)N1C3CCC(C3)OC1C2 (centres unmarked) [bictegravir sodium form I, bictegravir sodium]
- amount dissolved after 1 minute ([1]; 0.1M HCl): 0.085 mg/mL
- amount dissolved after 1 minute ([1]; pH6.8 phosphate buffer system): 0.059 mg/mL
- temperature at which decomposition starts ([2]; Form I formed in situ from Form II): about 370 °C

SMILES: O=C(NCc1c(F)cc(F)cc1F)c1cn2c(c(O)c1=O)C(=O)N1C3CCC(C3)OC1C2 (centres unmarked) [bictegravir sodium form II, bictegravir sodium]
- amount dissolved after 1 minute ([1]; 0.1M HCl): 0.220 mg/mL
- amount dissolved after 1 minute ([1]; pH6.8 phosphate buffer system): 0.186 mg/mL
- polymorphically stable as determined by XRPD (storage time) [3]: at least 1 month
- onset temperature of exothermic peak (solid-solid phase transition from Form II to Form I) [2]: about 313 °C
- peak temperature of exothermic peak (solid-solid phase transition from Form II to Form I) [2]: about 320 °C
